Biological target: Bacillus lentus alkaline protease F49 (Lederbergia lenta, UniProt P29599, A188P/L211D/S3T/V193M/V199I)
Test: Residual protease activity in the presence of an inhibitor
Assay type: biochemical
Conditions: compound 10 mM; substrate AAPFpNA; pH 8.6, 25° C.
Experimental: To verify that the compounds listed below have a protease activity-inhibiting effect, the residual proteolytic activity of the Bacillus lentus alkaline protease F49 (according to WO 95/23221 A1) was determined in the presence of these compounds.
The substrate succinyl-alanine-alanine-proline-phenylalanine-para-nitroanilide (AAPFpNA; Bachem L-1400) and 5×10^−9 and/or 1×10^−8 M of the protease were placed in 100 mM Tris buffer. The compounds to be tested as listed in Table 1 were then added in a final concentration of 10 mM. Each was dissolved in anhydrous DMSO, correcting for the effect of DMSO on the enzymatic activity by means of a corresponding reference with the same amount of DMSO but without the respective compound. The batches were incubated for 5 minutes at pH 8.6 and 25° C., where 1 U corresponds to 1 μmol substrate cleaved per minute.

Chain of Bacillus lentus alkaline protease F49 (P29599 other isoform, or with tags, fused parts or gaps A188P/V193M/V199I/L211D): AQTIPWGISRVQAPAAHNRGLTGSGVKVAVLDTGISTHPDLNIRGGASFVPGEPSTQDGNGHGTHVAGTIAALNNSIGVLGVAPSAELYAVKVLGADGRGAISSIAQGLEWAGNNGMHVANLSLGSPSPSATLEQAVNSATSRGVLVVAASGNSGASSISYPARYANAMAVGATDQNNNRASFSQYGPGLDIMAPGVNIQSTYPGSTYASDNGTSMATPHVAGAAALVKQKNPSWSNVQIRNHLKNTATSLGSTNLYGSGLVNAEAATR

Structure (SMILES) | relative strength as protease inhibitor and/or stabilizer (rank order V1, V2, V3, V4, V5)
O=C(O)c1cccc(NC(=O)c2ccccc2C(=O)O)c1 [V1, 2-[[(3-carboxyphenyl)amino]carbonyl]benzoic acid] | the strongest
O=C(O)c1ccc(C(=O)c2ccccc2C(=O)O)cc1 [V4, 2-(4-carboxybenzoyl)benzoic acid] | practically just as good as V3

Source: patent US7968508B2, “Benzophenone or benzoic acid anilide derivatives containing carboxyl groups as enzyme stabilizers” (priority 2007, dated 2011)
